According to US12496301B2, “Use of androgen receptor degrader for the treatment of spinal and bulbar muscular atrophy” (Arvinas Operations, Inc., priority 2023, dated 2025):
Entries after “also recorded” stand apart in the source; their conditions may differ.

Key:
PDE6D = target: T1, PDE6D (Homo sapiens, UniProt O43924); assay: Global proteomics / Western blot in SBMA hiPSC-myotubes: neosubstrate PDE6D; format: cell-based; conditions: hiPSC-myotubes, data not shown
T1 construct: endogenous in cells; host or cells: SBMA hiPSC-derived myotubes
Text: (§1) (FIG. 12A). […] (FIG. 12C).

polyQ-AR = assay: Global proteomics in SBMA hiPSC-myotubes: polyQ-AR and specificity; format: cell-based, human
Text: as §1

[1] = Free fraction in mouse plasma; format: in vitro ADME
AR = target: T2, AR (Homo sapiens, UniProt P10275); assay: AR agonism assay in MDA-MB-453 ARE-luc reporter cells in the presence of pomalidomide; format: cell-based; conditions: MDA-MB-453 AR luciferase reporter, with pomalidomide
T2 sequence (P10275 1-920 Q868H): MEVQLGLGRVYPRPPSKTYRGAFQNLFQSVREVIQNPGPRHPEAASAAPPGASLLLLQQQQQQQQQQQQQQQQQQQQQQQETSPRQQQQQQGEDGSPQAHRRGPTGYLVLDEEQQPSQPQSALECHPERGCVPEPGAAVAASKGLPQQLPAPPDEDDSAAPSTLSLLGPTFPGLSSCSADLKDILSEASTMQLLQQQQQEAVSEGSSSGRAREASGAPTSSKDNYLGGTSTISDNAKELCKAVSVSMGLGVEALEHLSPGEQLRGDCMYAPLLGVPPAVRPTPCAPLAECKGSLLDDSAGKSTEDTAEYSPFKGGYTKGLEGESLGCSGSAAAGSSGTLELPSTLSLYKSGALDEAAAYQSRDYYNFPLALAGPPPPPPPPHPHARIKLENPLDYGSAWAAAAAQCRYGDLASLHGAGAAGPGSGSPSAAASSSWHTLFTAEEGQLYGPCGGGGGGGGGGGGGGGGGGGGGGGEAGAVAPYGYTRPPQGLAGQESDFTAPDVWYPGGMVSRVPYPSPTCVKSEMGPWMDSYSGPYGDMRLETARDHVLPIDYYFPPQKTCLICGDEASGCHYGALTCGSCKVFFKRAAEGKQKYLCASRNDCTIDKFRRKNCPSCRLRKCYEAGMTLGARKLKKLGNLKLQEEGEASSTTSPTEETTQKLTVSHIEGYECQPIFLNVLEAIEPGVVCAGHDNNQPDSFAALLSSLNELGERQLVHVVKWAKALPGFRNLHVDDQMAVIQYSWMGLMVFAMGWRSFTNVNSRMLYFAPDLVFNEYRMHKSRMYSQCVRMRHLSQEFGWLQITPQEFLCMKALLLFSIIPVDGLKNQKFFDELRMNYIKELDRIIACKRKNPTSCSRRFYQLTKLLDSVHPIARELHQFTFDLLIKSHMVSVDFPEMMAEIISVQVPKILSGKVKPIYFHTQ
Procedure: The AR Responsive Luciferase Reporter MDA-MB-453 Stable Cell Line (MDA-MB-453 ARE-luc) was utilized for the AR agonism assay. These cells constitutively express the firefly luciferase reporter gene under the control of the androgen receptor response element. MDA-MB-453 ARE-luc cells were cultured in RPMI media (Thermo Fisher Scientific) supplemented with 5% charcoal-Dextran treated fetal bovine serum and were maintained at 37° C. in a 5% CO2 incubator. On day 0, the cells were seeded in 96-well plates at a density of 5×10^6 cells per plate. To prevent serum androgen interference during the AR agonism assay, the cells were cultured in phenol-free RPMI media without FBS. On day 1, the cells were treated with the compounds to establish concentration-response curves (CRCs). The compounds were administered at a top concentration of 300 nM with half-log dilutions. The synthetic AR agonist R1881 served as a positive control, with a top concentration of 30 nM and half-log dilutions. E3 ligase inhibitor pomalidomide was included in each well alongside the compounds at a concentration tenfold higher than that of the treated compounds. On day 2, the culture medium was removed, and luminescence data were obtained using the Bright Glo Assay (Promega, Catalog No. E2620) with 50 μL of Bright Glo buffer per well. Luminescence signals were recorded using a plate reader, and the agonism effect was calculated as a percentage using the formula: Agonism effect (%)=(Luminescence signal of compound/Maximum signal of R1881 at 30 nM)*100.

T1 sequence (O43924 whole entry): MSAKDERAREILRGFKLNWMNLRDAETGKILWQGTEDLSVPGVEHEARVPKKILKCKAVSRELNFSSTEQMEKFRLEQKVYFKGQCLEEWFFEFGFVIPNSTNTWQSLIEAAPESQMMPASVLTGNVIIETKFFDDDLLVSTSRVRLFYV

For CC(C)N(CC1CCN(c2ncc(C(=O)N[C@H]3C(C)(C)[C@H](Oc4ccc(C#N)c(Cl)c4)C3(C)C)cn2)CC1)[C@H]1C[C@H](Oc2ccc3c(c2)C(=O)N(C2CCC(=O)NC2=O)C3=O)C1 (stereo partly drawn) [Compound A, N-((1r,3r)-3-(3-chloro-4-cyanophenoxy)-2,2,4,4-tetramethylcyclobutyl)-2-(4-((((1r,3r)-3-((2-(2,6-dioxopiperidin-3-yl)-1,3-dioxoisoindolin-5-yl)oxy)cyclobutyl)(isopropyl)amino)methyl)piperidin-1-yl)pyrimidine-5-carboxamide], the “reduction of PDE6D by Western blot” value (PDE6D) was roughly 50%, the “polyQ-AR degradation compared to control, global proteomics” value (polyQ-AR; 12 nM, SBMA hiPSC-myotubes) was “induces degradation of polyQ-AR; also recorded: degrades polyQ-AR” and the “neosubstrates (off-target substrates) identified” value (polyQ-AR; out of ~7,600 proteins detected in myotubes) was “single neosubtrate; also recorded: only one neosubstrate”. The fraction unbound [1] was 0.0044, the “agonism activity at Emax relative to R1881” value (AR) was less than 40% and the EC50 (AR; read-out: EC50, AR agonist activity) was 0.069 µM.
